Counter-ions that a name gives are not always drawn.
Target: T1, human ProRS (prolyl tRNA synthetase moiety of glutamyl prolyl tRNA synthetase) (Homo sapiens, UniProt P07814)
T1 construct: The prolyl tRNA synthetase moiety (ProRS) in the cDNA of glutamyl prolyl tRNA synthetase was subcloned; 6xHis (N, cleaved yes); made in house; host or cells: E. coli BL21 (DE3)
T1 sequence (P07814 1007-1512 limits assumed): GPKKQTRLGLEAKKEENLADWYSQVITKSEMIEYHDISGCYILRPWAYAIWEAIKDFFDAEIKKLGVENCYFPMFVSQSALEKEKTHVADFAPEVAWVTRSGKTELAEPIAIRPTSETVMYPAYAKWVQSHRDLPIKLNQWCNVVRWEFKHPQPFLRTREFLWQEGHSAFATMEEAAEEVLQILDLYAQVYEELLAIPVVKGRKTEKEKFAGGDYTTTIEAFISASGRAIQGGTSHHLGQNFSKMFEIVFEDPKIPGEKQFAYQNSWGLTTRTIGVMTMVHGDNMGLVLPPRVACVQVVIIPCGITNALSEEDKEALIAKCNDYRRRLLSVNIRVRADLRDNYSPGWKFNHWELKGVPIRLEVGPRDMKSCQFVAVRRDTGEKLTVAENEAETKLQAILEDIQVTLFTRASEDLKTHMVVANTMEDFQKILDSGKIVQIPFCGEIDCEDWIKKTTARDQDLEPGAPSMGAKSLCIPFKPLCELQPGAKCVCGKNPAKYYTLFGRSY
Assay: Assay for inhibitors of prolyl tRNA synthetase activity (ProRS assay, labeled proline incorporation)
Assay type: biochemical
Conditions: ProRS 20 nM, compounds 10 μM to 0.5 nM, 10 min at 37° C.; read-out: EPR IC50
Excerpt: In order to establish the activities of the compounds highlighted above, we determined extent of inhibition of prolyl tRNA synthetase activity in dose response curves to obtain IC50 values.
The prolyl tRNA synthetase moiety (ProRS) in the cDNA of glutamyl prolyl tRNA synthetase was subcloned, tagged with a single biotin, purified and used in the assay. Briefly, human ProRS with a 6× N-terminal His tag in pET28N with TVMV BioP was transformed in E. coli BL21 (DE3) cells, selected, overexpressed and purified using a Ni Seph 6 FF XK 16/20 column in the first stage. Ni-NTA eluates were pooled and treated with TVMV protease, and biotinylated using d-Biotin, MgCl2, ATP and the BirA enzyme. This was rerun through a Ni column as before. The eluates were further enriched and purified using membrane ultrafiltration and a SuperDex 200 XK 16/60 column, and peak fractions were confirmed by SDS-PAGE prior to protein amount determination, aliquoting and storage at −80° C.
ProRS assay was performed in 96 well plates in a final reaction volume of 20 μl, using staggered additions of Tris-Cl (pH 7.5, 60 mM), dithiothreitol (2 mM), ATP (5 mM, pH 7.0), MgCl2 6 mM), ProRS (20 nM, with pre-determined active fraction range) and bovine tRNA (20 μg). Controls and compounds, at various concentrations (10 μM to 0.5 nM), were incubated on ice with enzyme mix for 15 min followed by addition of proline (non-labeled and labeled, 3.96 and 1.04 μM (1 μCi) respectively) to initiate the reaction. Reaction was carried out for 10 min at 37° C. and terminated by addition of TCA (10%, 100 μl). Reaction mix was collected on a Whatman GF/B filter using a vacuum filtration manifold. This filter was washed 3 times with 5% TCA followed by 2 washes with ethanol, air dried, and read using a liquid scintillation counter (TopCount NXT) using MicroScint O. IC50 values were calculated and analyzed using ToolSet (4-parameter plot) and depicted herein.

Q: How did the IC50 turn out when `O=C(C[C@H]1NCCC[C@@H]1O)Cn1cnc2ccc(-c3cccc(Cl)c3)nc2c1=O` [Example 5, 6-(3-chlorophenyl)-3-{3-[(2R,3S)-3-hydroxypiperidin-2-yl]-2-oxopropyl}pyrido[3,2-d]pyrimidin-4(3H)-one dihydrochloride] was run?
A: Its IC50 is 10 nM.

Q: Which IC50 does the source give for `Cc1cc(-c2cccc(F)c2)nc2c(=O)n(CC(=O)C[C@H]3NCCC[C@@H]3O)cnc12` [Example 14, 6-(3-fluorophenyl)-3{3-[(2R,3S)-3-hydroxypiperidin-2-yl]-2-oxopropyl}-8-methylpyrido[3,2-d]pyrimidin-4(3H)-one dihydrochloride] here?
A: The IC50 was 7 nM.

Q: `Cc1cc(C2CC2)nc2c(=O)n(C[C@@H](O)C[C@H]3NCCC[C@@H]3O)cnc12` [Example 30, 6-cyclopropyl-3-{(S)-2-hydroxy-3-[(2R,3S)-3-hydroxypiperidin-2-yl]propyl}-8-methylpyrido[3,2-d]pyrimidin-4(3H)-one dihydrochloride] was tested. Which IC50 did it give?
A: Its IC50 is 425 nM.

Q: `O=C(C[C@H]1NCCC[C@@H]1O)Cn1cnc2ccncc2c1=O` [Example 8, 3-{3-[(2R,3S)-3-hydroxypiperidin-2-yl]-2-oxopropyl}pyrido[4,3-d]pyrimidin-4(3H)-one dihydrochloride] was tested. Which IC50 did it give?
A: The IC50 was 14 nM.

Q: For `O=C(C[C@H]1NCCC[C@@H]1O)Cn1cnc2ccc(-c3cccc(C(F)(F)F)c3)nc2c1=O` [Example 6, 3-{3-[(2R,3S)-3-Hydroxypiperidin-2-yl]-2-oxopropyl}-6-[3-(trifluoromethyl)phenyl]pyrido[3,2-d]pyrimidin-4(3H)-one dihydrochloride], which IC50 is on record?
A: Its IC50 is 23 nM.

Q: `Cc1cc(C)c2ncn(C[C@@H](O)C[C@H]3NCC[C@@H]3O)c(=O)c2n1` [Example 37, 3-{(S)-2-hydroxy-3-[(2R,3S)-3-hydroxypyrrolidin-2-yl]propyl}-6,8-dimethylpyrido(3,2-d)pyrimidin-4(3H)-one bis (2,2,2-trifluoroacetic acid)] was tested. Which IC50 did it give?
A: The IC50 was > 10000 nM.

Q: For `Cc1cc(C(C)C)cc2c(=O)n(CC(=O)C[C@@H]3CCCCN3)cnc12` [Example 18, (S)-6-isopropyl-8-methyl-3-{2-oxo-3-[piperidin-2-yl]propyl}quinazolin-4(3H)-one hydrochloride], which IC50 is on record?
A: The IC50 was 140 nM.

Q: Which IC50 does the source give for `Cc1cc(Cl)cc2c(=O)n(CC(=O)CC3CCCCN3)cnc12` (stereo not shown) [Example 4, 6-Chloro-8-methyl-3-[2-oxo-3-(piperidin-2-yl)propyl]quinazolin-4(3H)-one hydrochloride] here?
A: Its IC50 is 807 nM.

Q: Which IC50 does the source give for `Cc1cc(C2CC2)nc2c(=O)n(CC(=O)C[C@H]3NCCC[C@@H]3O)cnc12` [Example 12, 6-cyclopropyl-3-(3-((2R,3S)-3-hydroxypiperidin-2-yl)-2-oxopropyl)-8-methylpyrido[3,2-d]pyrimidin-4(3H)-one dihydrochloride] here?
A: The IC50 was 13 nM.

Q: With `O=c1c2nc(-c3cccc(Cl)c3)ccc2ncn1C[C@@H](O)C[C@H]1NCCC[C@@H]1O` [Example 22, 6-(3-Chlorophenyl)-3-{(S)-2-hydroxy-3-[(2R,3S)-3-hydroxypiperidin-2-yl]propyl}pyrido[3,2-d]pyrimidin-4(3H)-one dihydrochloride] as the molecule, how does the IC50 read?
A: The IC50 was 20 nM.

Q: Which IC50 does the source give for `O=C(C[C@H]1NCCC[C@@H]1O)Cn1cnc2ccc(-c3ccc(F)c(F)c3)nc2c1=O` [Example 9, 6-(3,4-difluorophenyl)-3-{3-[(2R,3S)-3-hydroxypiperidin-2-yl]-2-oxopropyl}pyrido[3,2-d]pyrimidin-4(3H)-one dihydrochloride] here?
A: The IC50 was 8 nM.

Q: How did the IC50 turn out when `Cc1cc(-c2cccc(F)c2)nc2c(=O)n(C[C@@H](O)C[C@H]3NCCC[C@@H]3O)cnc12` [Example 32, 6-{(3-fluorophenyl)-3-[(S)-2-hydroxy-3-(2R,3S)-3-hydroxypiperidin-2-yl-propyl)-8-methylpyrido[3,2-d]}pyrimidin-4(3H)-one dihydrochloride] was run?
A: Its IC50 is 79 nM.

Q: `Cc1cc(C)c2ncn(C[C@@H](O)C[C@H]3NCCC[C@@H]3O)c(=O)c2n1` [Example 21, 3-{(S)-2-hydroxy-3-[(2R,3S)-3-hydroxypiperidin-2-yl]propyl}-6,8-dimethylpyrido[3,2-d]pyrimidin-4(3H)-one dihydrochloride] was tested. Which IC50 did it give?
A: Its IC50 is 491 nM.

Q: For `Cc1cc(-c2cccnc2)nc2c(=O)n(CC(=O)C[C@H]3NCCC[C@@H]3O)cnc12` [Example 17, 3-{3-[(2R,3S)-3-hydroxypiperidin-2-yl]-2-oxopropyl}-8-methyl-6-(pyridin-3-yl)pyrido[3,2-d]pyrimidin-4(3H)-one trihydrochloride], which IC50 is on record?
A: Its IC50 is 12 nM.

Q: `Cc1cc(-c2cccc(Cl)c2)nc2c(=O)n(CC(=O)C[C@H]3NCCC[C@@H]3O)cnc12` [Example 16, 6-(3-chlorophenyl)-3-{3-[(2R,3S)-3-hydroxypiperidin-2-yl]-2-oxopropyl}-8-methylpyrido[3,2-d]pyrimidin-4(3H)-one bis(2,2,2-trifluoroacetate)] was tested. Which IC50 did it give?
A: Its IC50 is 3 nM.

Q: `O=c1c2cnccc2ncn1C[C@@H](O)C[C@H]1NCC[C@@H]1O` [Example 38, 3-{(S)-2-hydroxy-3-[(2R,3S)-3-hydroxypyrrolidin-2-yl]-propyl}pyrido[4,3-d]pyrimidin-4(3H)-one bis (2,2,2-trifluoroacetic acid)] was tested. Which IC50 did it give?
A: The IC50 was 2300 nM.

Q: Which IC50 does the source give for `Cc1cc(C(F)(F)F)cn2c(=O)c(NC(=O)C[C@H]3NCCC[C@@H]3O)cnc12` [Example 41, 2-((2R,3S)-3-hydroxypiperidin-2-yl)-N-(9-methyl-4-oxo-7-(trifluoromethyl)-4H-pyrido[1,2-a]pyrimidin-3-yl)acetamide 2,2,2-trifluoroacetic acid] here?
A: The IC50 was > 8000 nM.

Q: Which IC50 does the source give for `Cc1cc(-c2cccnc2)nc2c(=O)n(C[C@@H](O)C[C@H]3NCCC[C@@H]3O)cnc12` [Example 34, 3-{(S)-2-hydroxy-3-[(2R,3S)-3-hydroxypiperidin-2-yl]propyl}-8-methyl-6-(pyridin-3-yl)pyrido[3,2-d]pyrimidin-4(3H)-one trihydrochloride] here?
A: Its IC50 is 290 nM.

Q: How did the IC50 turn out when `Cc1cc(-c2cccc(C(F)(F)F)c2)nc2c(=O)n(CC(=O)C[C@H]3NCCC[C@@H]3O)cnc12` [Example 15, 3-{3-[(2R,3S)-3-hydroxypiperidin-2-yl]-2-oxopropyl}-8-methyl-6-(3-(trifluoromethyl)phenyl)pyrido[3,2-d]pyrimidin-4(3H)-one bis(2,2,2-trifluoroacetic acid)] was run?
A: Its IC50 is 8 nM.

Q: For `O=c1c2nc(-c3cccc(F)c3)ccc2ncn1C[C@@H](O)CC1NCCC[C@@H]1O` (stereo partly drawn) [Example 24, 6-(3-Fluorophenyl)-3-{(2S)-2-hydroxy-3-[(3S)-3-hydroxypiperidin-2-yl]propyl}pyrido[3,2-d]pyrimidin-4(3H)-one dihydrochloride], which IC50 is on record?
A: The IC50 was 8 nM.

Q: With `O=c1c2cnccc2ncn1C[C@@H](O)C[C@H]1NCCC[C@@H]1O` [Example 26, 3-{(S)-2-Hydroxy-3-[(2R,3S)-3-hydroxypiperidin-2-yl]propyl}pyrido[4,3-d]pyrimidin-4(3H)-one dihydrochloride] as the molecule, how does the IC50 read?
A: The IC50 was 80 nM.

Q: `Cc1cc(-c2cccc(Cl)c2)nc2c(=O)n(C[C@@H](O)C[C@H]3NCCC[C@@H]3O)cnc12` [Example 33, 6-(3-chlorophenyl)-3-{(S)-2-hydroxy-3-[(2R,3S)-3-hydroxypiperidin-2-yl]propyl}-8-methylpyrido[3,2-d]pyrimidin-4(3H)-one dihydrochloride] was tested. Which IC50 did it give?
A: Its IC50 is 23 nM.

Q: `Cc1cc(C)c2ncn(C[C@@H](O)C[C@@H]3CCCCN3)c(=O)c2n1` [Example 36, 3-{(S)-2-hydroxy-3-[(S)-piperidin-2-yl]propyl}-6,8-dimethylpyrido[3,2-d]pyrimidin-4(3H)-one dihydrochloride] was tested. Which IC50 did it give?
A: Its IC50 is 2180 nM.

Q: With `Cc1cc(-c2ccc(F)c(F)c2)nc2c(=O)n(C[C@@H](O)C[C@H]3NCCC[C@@H]3O)cnc12` [Example 27, 6-(3,4-difluorophenyl)-3-((S)-2-hydroxy-3-((2R,3S)-3-hydroxypiperidin-2-yl)propyl)-8-methylpyrido[3,2-d]pyrimidin-4(3H)-one dihydrochloride] as the molecule, how does the IC50 read?
A: Its IC50 is 172 nM.

Q: For `O=c1c2nc(-c3ccc(F)c(F)c3)ccc2ncn1C[C@@H](O)C[C@H]1NCCC[C@@H]1O` [Example 25, 6-(3,4-Difluorophenyl)-3-{(S)-2-hydroxy-3-[(2R,3S)-3-hydroxypiperidin-2-yl]propyl}pyrido[3,2-d]pyrimidin-4(3H)-one dihydrochloride], which IC50 is on record?
A: Its IC50 is 25 nM.

From patent publication US20210122746A1, “FEBRIFUGINE DERIVATIVES” (BRISTOL-MYERS SQUIBB COMPANY, priority 2017, published 2021)
